Assay results: US20210198277A1, “AMINE-SUBSTITUTED ARYL OR HETEROARYL COMPOUNDS” (Epizyme, Inc., priority 2016, published 2021)

Legend:
[1] = target: T1, human EHMT2 913-1193 (Homo sapiens, UniProt Q96KQ7); assay: EHMT2 enzyme assay on histone peptide substrate (EHMT2 PEP); format: biochemical; details: Table II; read-out: EHMT2 PEP (IC50 μM)
T1 construct: recombinant purified human EHMT2 913-1193, Viva; purchased Viva
T1 sequence (Q96KQ7 913-1193): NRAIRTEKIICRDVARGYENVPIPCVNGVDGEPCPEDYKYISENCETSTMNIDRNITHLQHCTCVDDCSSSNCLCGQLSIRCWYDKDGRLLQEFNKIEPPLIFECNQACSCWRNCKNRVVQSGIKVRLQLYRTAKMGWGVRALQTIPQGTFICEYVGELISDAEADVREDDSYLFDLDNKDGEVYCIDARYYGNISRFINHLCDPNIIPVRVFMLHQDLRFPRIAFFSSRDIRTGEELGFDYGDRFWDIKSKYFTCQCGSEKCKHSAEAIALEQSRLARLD
Outline: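 Radiometric methyltransferase assay: 0.031 nM EHMT2 913-1193 preincubated 30 min with compound (10-point 3-fold series, top final 50 μM, 2% DMSO) in 20 mM Bicine pH 7.5, 1 mM TCEP. Biotinylated histone peptide methylated with ^3H-SAM for 60 min at room temperature, quenched with unlabeled SAM, captured on streptavidin Flashplates and counted.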

[2] = target: T2, EHMT1 (Homo sapiens, UniProt Q9H9B1); assay: EHMT1 enzyme assay on peptide substrate (EHMT1 PEP); format: biochemical; details: Table II; read-out: EHMT1 PEP (IC50 μM)
T2 sequence (Q9H9B1 1-1298): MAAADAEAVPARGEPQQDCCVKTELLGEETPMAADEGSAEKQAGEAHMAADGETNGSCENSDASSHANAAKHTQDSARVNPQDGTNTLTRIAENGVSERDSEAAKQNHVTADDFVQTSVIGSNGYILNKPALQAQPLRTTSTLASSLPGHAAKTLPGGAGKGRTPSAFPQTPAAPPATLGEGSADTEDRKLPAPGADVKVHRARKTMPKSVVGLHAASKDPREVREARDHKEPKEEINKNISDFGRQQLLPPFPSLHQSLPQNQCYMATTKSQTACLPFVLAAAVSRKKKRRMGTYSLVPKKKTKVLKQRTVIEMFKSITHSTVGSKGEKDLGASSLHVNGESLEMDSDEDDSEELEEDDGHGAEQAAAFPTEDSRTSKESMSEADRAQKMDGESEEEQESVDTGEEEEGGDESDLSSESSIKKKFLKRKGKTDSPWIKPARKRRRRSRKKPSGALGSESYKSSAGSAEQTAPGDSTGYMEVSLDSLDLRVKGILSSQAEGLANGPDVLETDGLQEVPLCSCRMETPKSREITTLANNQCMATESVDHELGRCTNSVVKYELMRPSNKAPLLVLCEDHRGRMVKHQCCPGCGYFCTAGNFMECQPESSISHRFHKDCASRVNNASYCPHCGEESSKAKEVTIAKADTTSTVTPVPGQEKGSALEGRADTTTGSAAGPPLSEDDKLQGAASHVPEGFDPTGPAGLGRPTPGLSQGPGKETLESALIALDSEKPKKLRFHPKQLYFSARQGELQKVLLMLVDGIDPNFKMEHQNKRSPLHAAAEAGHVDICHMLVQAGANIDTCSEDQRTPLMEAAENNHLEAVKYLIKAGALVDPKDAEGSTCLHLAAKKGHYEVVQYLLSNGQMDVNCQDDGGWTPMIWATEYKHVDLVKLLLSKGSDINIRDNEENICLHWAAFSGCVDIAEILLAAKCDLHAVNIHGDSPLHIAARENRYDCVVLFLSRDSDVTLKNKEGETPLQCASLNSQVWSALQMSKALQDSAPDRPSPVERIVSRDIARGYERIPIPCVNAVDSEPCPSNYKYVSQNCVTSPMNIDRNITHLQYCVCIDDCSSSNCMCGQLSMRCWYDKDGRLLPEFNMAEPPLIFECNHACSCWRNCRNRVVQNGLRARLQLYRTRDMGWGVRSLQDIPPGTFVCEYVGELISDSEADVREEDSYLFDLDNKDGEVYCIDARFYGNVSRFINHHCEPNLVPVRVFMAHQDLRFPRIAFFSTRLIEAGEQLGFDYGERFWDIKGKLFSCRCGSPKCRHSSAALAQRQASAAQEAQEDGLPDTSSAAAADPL

Structure (SMILES) | IC50 [1] | IC50 [2]
COc1ccc(Nc2ccnc(OCC3CCN(C(C)=O)CC3)c2)cc1OCCCN1CCCC1 [Compound 157] | 1 to 10 µM | 1 to 10 µM
COc1ccc(N(C)c2nccc(NCC3CCN(C(C)=O)CC3)n2)cc1OCCCN1CCCC1 [Compound 158] | > 10 µM | > 10 µM
COc1ccc(Nc2nccc(NCC3CCN(C)CC3)n2)cc1OCCCNc1ccccc1 [Compound 159] | > 10 µM | > 10 µM
COc1ccc(Nc2nccc(NCC3CCN(C(C)=O)CC3)n2)cc1OCCCNc1ccccc1 [Compound 160] | > 10 µM | > 10 µM
COc1ccc(Nc2nccc(N3CCN(S(C)(=O)=O)CC3)n2)cc1OCCCN1CCCC1 [Compound 162] | > 10 µM | > 10 µM
COc1ccc(Nc2cc(N(C)CC3CCN(C(C)=O)CC3)ccn2)cc1OCCCN1CCCC1 [Compound 163] | > 10 µM | > 10 µM
COc1ccc(Nc2nccc(NCc3ccc4[nH]ncc4c3)n2)cc1OCCCN1CCCC1 [Compound 164] | > 10 µM | > 10 µM
COc1ccc(Nc2nccc(NCC3CCN(C(C)=O)CC3)n2)cc1OCCC(=O)N1CCCC1 [Compound 166] | > 10 µM | > 10 µM
COc1ccc(Nc2nccc(N3CCN(c4ccccn4)CC3)n2)cc1OCCCN1CCCC1 [Compound 168] | > 10 µM | > 10 µM
COc1ccc(Nc2nccc(N(C)CC3CCN(C(C)=O)CC3)n2)cc1OCCCN1CCCC1 [Compound 172] | 1 to 10 µM | 1 to 10 µM
COc1ccc(Nc2cc(OCC3CCN(C(C)=O)CC3)ccn2)cc1OCCCN1CCCC1 [Compound 173] | 1 to 10 µM | 1 to 10 µM
COc1ccc(Nc2nccc(NCCC3CCOCC3)n2)cc1OCCCN1CCCC1 [Compound 178] | 0.1 to 1 µM | 0.1 to 1 µM
COc1cnc(Nc2cc(NCC3CCN(C(C)=O)CC3)ccn2)cc1OCCCN1CCCC1 [Compound 182] | 0.1 to 1 µM | 0.1 to 1 µM
COc1ccc(Nc2nccc(NCC3CCN(C(C)=O)CC3)n2)cc1OCC(C)CN1CCCC1 (stereo not drawn) [Compound 183] | 1 to 10 µM | 1 to 10 µM
COc1ccc(Nc2cncc(NCC3CCN(C(C)=O)CC3)c2)cc1OCCCN1CCCC1 [Compound 184] | > 10 µM | > 10 µM
COc1ccc(Nc2cc(NCC3CCN(C(C)=O)CC3)cnn2)cc1OCCCN1CCCC1 [Compound 185] | 1 to 10 µM | 1 to 10 µM
COc1ccc(Nc2nccc(NCc3ccc4nccn4c3)n2)cc1OCCCN1CCCC1 [Compound 191] | < 0.1 µM | < 0.1 µM
COc1ccc(Nc2nccc(NCC3CCN(C(C)=O)CC3)n2)cc1OC(C)CCN1CCCC1 (stereo not drawn) [Compound 195] | 1 to 10 µM | 1 to 10 µM
COc1ccc(Nc2nccc(NCC3CCN(S(C)(=O)=O)CC3)n2)cc1OCCCN1CCCC1 [Compound 199] | 0.1 to 1 µM | 0.1 to 1 µM
CCOC(=O)N1CCC(CNc2ccnc(Nc3ccc(OC)c(OCCCN4CCCC4)c3)n2)CC1 [Compound 203] | 0.1 to 1 µM | 0.1 to 1 µM
COc1ccc(Nc2nccc(NCC3CCOCC3)n2)cc1OCCN1CCOCC1 [Compound 204] | 1 to 10 µM | 1 to 10 µM

Further lines, results first:

IC50 [1] | IC50 [2] | Structure (SMILES)
> 10 µM | > 10 µM | COc1ccc(Nc2nccc(N3CCC(NC(C)=O)CC3)n2)cc1OCCCN1CCCC1 [Compound 161]
0.1 to 1 µM | 0.1 to 1 µM | COc1ccc(Nc2nccc(NCc3ccc(=O)[nH]c3)n2)cc1OCCCN1CCCC1 [Compound 165]
0.1 to 1 µM | 0.1 to 1 µM | COc1ccc(Nc2nccc(NCCc3ccccn3)n2)cc1OCCCN1CCCC1 [Compound 167]
> 10 µM | > 10 µM | COc1ccc(Nc2nccc(N3CCS(=O)(=O)CC3)n2)cc1OCCCN1CCCC1 [Compound 169]
> 10 µM | > 10 µM | COc1ccc(Nc2nccc(N3CC(C(=O)N(C)C)C3)n2)cc1OCCCN1CCCC1 [Compound 170]
1 to 10 µM | 1 to 10 µM | COc1ccc(Nc2nccc(N(C)C)n2)cc1OCCCN1CCCC1 [Compound 171]
> 10 µM | > 10 µM | COc1ccc(Nc2nccc(C)n2)cc1OCCCN1CCCC1 [Compound 174]
> 10 µM | > 10 µM | COc1ccc(Nc2nc(C)cc(C)n2)cc1OCCCN1CCCC1 [Compound 175]
> 10 µM | > 10 µM | CNc1cccc(Nc2ccc(OC)c(OCCCN3CCCC3)c2)n1 [Compound 176]
1 to 10 µM | > 10 µM | COCCN(C)c1ccnc(Nc2ccc(OC)c(OCCCN3CCCC3)c2)n1 [Compound 177]
> 10 µM | > 10 µM | COc1ccc(Nc2nccc(N3CC(C(N)=O)C3)n2)cc1OCCCN1CCCC1 [Compound 179]
> 10 µM | > 10 µM | COc1ccc(Nc2nccc(-n3cc(C)cn3)n2)cc1OCCCN1CCCC1 [Compound 180]
> 10 µM | > 10 µM | COc1ccc(Nc2ncc(CO)cn2)cc1OCCCN1CCCC1 [Compound 181]
0.1 to 1 µM | 0.1 to 1 µM | CNc1cc(C)nc(Nc2ccc(OC)c(OCCCN3CC[C@@H](F)C3)c2)n1 [Compound 186]
1 to 10 µM | 1 to 10 µM | CNc1nc(Nc2ccc(OC)c(OCCCN3CCCC3)c2)ncc1F [Compound 187]
0.1 to 1 µM | 0.1 to 1 µM | CNc1cc(Nc2ccc(OC)c(OCCCN3CCCC3)c2)cnn1 [Compound 188]
0.1 to 1 µM | 0.1 to 1 µM | COc1ccc(Nc2nccc(NC3CN(C(C)=O)C3)n2)cc1OCCCN1CCCC1 [Compound 192]
0.1 to 1 µM | 0.1 to 1 µM | COc1ccc(Nc2nccc(NCCn3cccn3)n2)cc1OCCCN1CCCC1 [Compound 193]
